Assays:
[1] = target: T1, Avi-KRAS G12V (2-169) GTP/RAF1 RBD-3xFLAG (51-131) (Homo sapiens, UniProt P01116, G12V); test: Raf1-KRAS G12V-GTP disruption HTRF assay (Biological Example 3); type: binding; conditions: KRAS G12V, GTP-loaded
T1 construct: Avi-KRAS G12V (2-169)
In short: (§1)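 HTRF PPI read-out (ex 320 nm, em 615 nm) after 1 h RT incubation with shaking; data as % activity vs DMSO (100%), IC50 from curve fit. Complex 50 nM, RBD reagent 75 nM; compound 30-0.005 μM, 3-fold.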

[2] = target: T2, Avi-KRAS WT (2-169) GTP/RAF1 RBD-3xFLAG (51-131) (Homo sapiens, UniProt P01116); test: Raf1-KRAS WT-GTP disruption HTRF assay (Biological Example 3); type: binding; conditions: KRAS WT, GTP-loaded
T2 construct: Avi-KRAS WT (2-169)
T2 sequence (P01116 2-169 isoform P01116-2): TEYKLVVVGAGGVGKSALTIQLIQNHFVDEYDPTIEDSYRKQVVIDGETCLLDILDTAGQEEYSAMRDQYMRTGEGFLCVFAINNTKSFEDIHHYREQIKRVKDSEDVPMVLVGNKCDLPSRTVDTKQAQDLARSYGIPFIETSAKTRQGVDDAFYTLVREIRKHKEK
In short: as §1

[3] = target: T3, Avi-KRAS G12D (2-169) GTP/RAF1 RBD-3xFLAG (51-131) (Homo sapiens, UniProt P01116, G12D); test: Raf1-KRAS G12D-GTP disruption HTRF assay (Biological Example 3); type: binding; conditions: KRAS G12D, GTP-loaded
T3 construct: Avi-KRAS G12D (2-169)
T3 sequence (P01116 2-169 isoform P01116-2 G12D): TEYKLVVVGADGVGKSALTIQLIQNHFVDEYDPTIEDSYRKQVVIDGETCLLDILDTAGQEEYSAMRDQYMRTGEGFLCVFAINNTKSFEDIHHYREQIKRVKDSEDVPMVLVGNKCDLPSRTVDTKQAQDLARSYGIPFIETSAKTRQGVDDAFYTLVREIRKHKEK
In short: as §1

SW620 cells (KRAS G12V) = test: Cell-based pERK HTRF assay in SW620 cell (Biological Example 4)
In short: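 SW620 seeded in RPMI/10% FBS, next day dosed 4 h (top 1 μM, half-log, 9 pts, 0.25% DMSO). Lysed, pERK by d2/Eu cryptate HTRF, 4–24 h RT, 615 nm read.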

[4] = target: T4, Avi-KRAS G12C (2-169) GTP/RAF1 RBD-3xFLAG (51-131) (Homo sapiens, UniProt P01116, G12C); test: Raf1-KRAS G12C-GTP disruption HTRF assay (Biological Example 3); type: binding; conditions: KRAS G12C, GTP-loaded
T4 construct: Avi-KRAS G12C (2-169)
T4 sequence (P01116 2-169 isoform P01116-2 G12C): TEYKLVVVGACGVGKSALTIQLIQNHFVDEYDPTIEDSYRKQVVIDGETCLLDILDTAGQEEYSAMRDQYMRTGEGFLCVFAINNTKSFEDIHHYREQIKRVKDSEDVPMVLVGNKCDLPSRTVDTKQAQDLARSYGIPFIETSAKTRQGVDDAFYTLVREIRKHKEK
In short: as §1

GP2d cells (KRAS G12D) = test: Cell-based pERK HTRF assay in GP2d cell (Biological Example 2); conditions: GP2d (KRAS G12D) cells
In short: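 Phospho-ERK is measured by HTRF following a 60 min compound exposure at 0.25% DMSO, with a 9-point half-log curve topping at 1 μM or 100 nM.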

[5] = Homo sapiens, SW-620, SW620 (KRAS G12V) cells

T1 sequence (P01116 2-169 isoform P01116-2 G12V): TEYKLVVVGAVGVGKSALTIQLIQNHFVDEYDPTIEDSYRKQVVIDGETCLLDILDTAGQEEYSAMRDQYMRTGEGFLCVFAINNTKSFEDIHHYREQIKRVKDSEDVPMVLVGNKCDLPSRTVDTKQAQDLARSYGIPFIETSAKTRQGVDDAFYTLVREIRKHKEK

SMILES	IC50 [1]	IC50 [2]	IC50 [3]	IC50 (SW620 cells (KRAS G12V); [5])	IC50 [4]	IC50 (GP2d cells (KRAS G12D); GP2d)	IC50 (SW620 cells (KRAS G12V); SW620 (KRAS G12V) cells)	IC50 (GP2d cells (KRAS G12D))
CN(Cc1cocn1)c1nc(OC[C@@]23CCCN2C[C@H](F)C3)nc2c(F)c(-c3ccc(F)c4sc(N)c(C#N)c34)c(C(F)(F)F)cc12 (atropisomer, axis not shown) [Compound 855]	100 to 1000 nM	100 to 1000 nM	100 to 1000 nM	< 100 nM	100 to 1000 nM	< 100 nM	–	–
CCN(c1nc(OC[C@@]23CCCN2C[C@H](F)C3)nc2c(F)c(-c3ccc(F)c4sc(N)c(C#N)c34)c(C(F)(F)F)cc12)[C@H]1C[C@@H]2CCN(C)C(=O)N2C1 (atropisomer, axis not shown) [Compound 667]	100 to 1000 nM	100 to 1000 nM	100 to 1000 nM	< 100 nM	100 to 1000 nM	< 100 nM	–	–
CCN(c1nc(OC[C@@]23CCCN2C[C@H](F)C3)nc2c(F)c(-c3ccc(F)c4sc(N)c(C#N)c34)c(C(F)(F)F)cc12)[C@H]1CCN(C(=O)OCC(F)(F)F)C1 (atropisomer, axis not shown) [Compound 849]	100 to 1000 nM	100 to 1000 nM	100 to 1000 nM	< 100 nM	100 to 1000 nM	< 100 nM	–	–
CCN(c1nc(OC[C@@]23CCCN2C[C@H](F)C3)nc2c(F)c(-c3ccc(F)c4sc(N)c(C#N)c34)c(C(F)(F)F)cc12)[C@H]1CCN(C(=O)OCC2COC2)[C@@H]1C (atropisomer, axis not shown) [Compound 835]	100 to 1000 nM	1000 to 10000 nM	100 to 1000 nM	< 100 nM	≤ 100 nM	< 100 nM	–	–
CCN(c1nc(OC[C@@]23CCCN2C[C@H](F)C3)nc2c(F)c(-c3ccc(F)c4sc(N)c(C#N)c34)c(C(F)(F)F)cc12)[C@H]1C[C@H](C)N(C(=O)C2C[C@@H]2F)C1 (stereo partly drawn) [Compound 886]	≤ 100 nM	100 to 1000 nM	100 to 1000 nM	< 100 nM	≤ 100 nM	< 100 nM	–	–
CN(Cc1ccccn1)c1nc(OC[C@@]23CCCN2C[C@H](F)C3)nc2c(F)c(-c3ccc(F)c4sc(N)c(C#N)c34)c(C(F)(F)F)cc12 (atropisomer, axis not shown) [Compound 865]	1000 to 10000 nM	1000 to 10000 nM	100 to 1000 nM	< 100 nM	1000 to 10000 nM	< 100 nM	–	–
CCN(c1nc(OC[C@@]23CCCN2C[C@H](F)C3)nc2c(F)c(-c3ccc(F)c4sc(N)c(C#N)c34)c(C(F)(F)F)cc12)[C@H]1C[C@H]2C[C@H](C)C(=O)N2C1 (atropisomer, axis not shown) [Compound 891]	≤ 100 nM	≤ 100 nM	≤ 100 nM	< 100 nM	≤ 100 nM	< 100 nM	–	–
CCN(c1nc(OC[C@@]23CCCN2C[C@H](F)C3)nc2c(F)c(-c3ccc(F)c4sc(N)c(C#N)c34)c(C(F)(F)F)cc12)[C@H]1C[C@@H]2CCCC(=O)N2C1 (atropisomer, axis not shown) [Compound 663]	1000 to 10000 nM	1000 to 10000 nM	100 to 1000 nM	< 100 nM	1000 to 10000 nM	< 100 nM	–	–
CN(Cc1ccncc1)c1nc(OC[C@@]23CCCN2C[C@H](F)C3)nc2c(F)c(-c3ccc(F)c4sc(N)c(C#N)c34)c(C(F)(F)F)cc12 (atropisomer, axis not shown) [Compound 867]	1000 to 10000 nM	1000 to 10000 nM	1000 to 10000 nM	< 100 nM	1000 to 10000 nM	< 100 nM	–	–
CN(Cc1ccon1)c1nc(OC[C@@]23CCCN2C[C@H](F)C3)nc2c(F)c(-c3ccc(F)c4sc(N)c(C#N)c34)c(C(F)(F)F)cc12 (atropisomer, axis not shown) [Compound 856]	100 to 1000 nM	1000 to 10000 nM	100 to 1000 nM	< 100 nM	1000 to 10000 nM	< 100 nM	–	–
CCN(c1nc(OC[C@@]23CCCN2C[C@H](F)C3)nc2c(F)c(-c3ccc(F)c4sc(N)c(C#N)c34)c(C(F)(F)F)cc12)[C@H]1C[C@H]2C[C@@H](C)C(=O)N2C1 (atropisomer, axis not shown) [Compound 866]	≤ 100 nM	≤ 100 nM	≤ 100 nM	< 100 nM	≤ 100 nM	< 100 nM	–	–
CCN(c1nc(OC[C@@]23CCCN2C[C@H](F)C3)nc2c(F)c(-c3ccc(F)c4sc(N)c(C#N)c34)c(C(F)(F)F)cc12)[C@H]1C[C@H]2[C@@H](C)N(C)C(=O)N2C1 (atropisomer, axis not shown) [Compound 910]	100 to 1000 nM	100 to 1000 nM	100 to 1000 nM	< 100 nM	100 to 1000 nM	< 100 nM	–	–
CCN(c1nc(OC[C@@]23CCCN2C[C@H](F)C3)nc2c(F)c(-c3ccc(F)c4sc(N)c(C#N)c34)c(C(F)(F)F)cc12)[C@H]1CCN(C(=O)C2CC(OC)C2)C1 (stereo partly drawn) [Compound 844]	100 to 1000 nM	100 to 1000 nM	100 to 1000 nM	< 100 nM	100 to 1000 nM	< 100 nM	–	–

The remaining lines, values ahead:

IC50 [1]	IC50 [2]	IC50 [3]	IC50 (SW620 cells (KRAS G12V); [5])	IC50 [4]	IC50 (GP2d cells (KRAS G12D); GP2d)	IC50 (SW620 cells (KRAS G12V); SW620 (KRAS G12V) cells)	IC50 (GP2d cells (KRAS G12D))	SMILES
100 to 1000 nM	100 to 1000 nM	100 to 1000 nM	< 100 nM	100 to 1000 nM	< 100 nM	–	–	CCN(c1nc(OC[C@@]23CCCN2C[C@H](F)C3)nc2c(F)c(-c3ccc(F)c4sc(N)c(C#N)c34)c(C(F)(F)F)cc12)[C@H]1CCN(C(C)=O)[C@@H]1COC (atropisomer, axis not shown) [Compound 924]
100 to 1000 nM	100 to 1000 nM	100 to 1000 nM	< 100 nM	100 to 1000 nM	< 100 nM	–	–	CCN(c1nc(OCC23CCCN2CC(F)C3)nc2c(F)c(-c3ccc(F)c4sc(N)c(C#N)c34)c(C(F)(F)F)cc12)C1CCN(C(=O)c2ncns2)C1 (stereo not drawn) [Compound 949]
100 to 1000 nM	100 to 1000 nM	100 to 1000 nM	< 100 nM	100 to 1000 nM	< 100 nM	–	–	CCN(c1nc(OC[C@@]23CCCN2C[C@H](F)C3)nc2c(F)c(-c3ccc(F)c4sc(N)c(C#N)c34)c(C(F)(F)F)cc12)[C@H]1CCN(C(=O)c2ncc(C)s2)C1 (atropisomer, axis not shown) [Compound 919]
100 to 1000 nM	1000 to 10000 nM	100 to 1000 nM	< 100 nM	1000 to 10000 nM	< 100 nM	–	–	CN(Cc1ccno1)c1nc(OC[C@@]23CCCN2C[C@H](F)C3)nc2c(F)c(-c3ccc(F)c4sc(N)c(C#N)c34)c(C(F)(F)F)cc12 (atropisomer, axis not shown) [Compound 917]
> 10000 nM	> 10000 nM	> 10000 nM	< 100 nM	> 10000 nM	< 100 nM	–	–	CN(c1nc(OC[C@@]23CCCN2C[C@H](F)C3)nc2c(F)c(-c3ccc(F)c4sc(N)c(C#N)c34)c(C(F)(F)F)cc12)[C@H]1CCCc2ccncc21 (atropisomer, axis not shown) [Compound 971]
> 10000 nM	> 10000 nM	1000 to 10000 nM	< 100 nM	> 10000 nM	< 100 nM	–	–	CCN(c1nc(OCC23CCCN2CC(F)C3)nc2c(F)c(-c3ccc(F)c4sc(N)c(C#N)c34)c(C(F)(F)F)cc12)C(C)c1cccnc1 (stereo not drawn) [Compound 933]
1000 to 10000 nM	1000 to 10000 nM	100 to 1000 nM	< 100 nM	1000 to 10000 nM	< 100 nM	–	–	CCN(c1nc(OC[C@@]23CCCN2C[C@H](F)C3)nc2c(F)c(-c3ccc(F)c4sc(N)c(C#N)c34)c(C(F)(F)F)cc12)[C@H]1CCN(C(=O)c2ncc(Cl)s2)C1 (atropisomer, axis not shown) [Compound 939]
100 to 1000 nM	100 to 1000 nM	≤ 100 nM	< 100 nM	100 to 1000 nM	< 100 nM	–	–	CCN(c1nc(OC[C@]23CCCN2C[C@H](F)C3)nc2c(F)c(-c3ccc(F)c4sc(N)c(C#N)c34)c(C(F)(F)F)cc12)[C@H]1CCN(C(=O)OC)C1 (atropisomer, axis not shown) [Compound 954]
> 10000 nM	> 10000 nM	1000 to 10000 nM	–	> 10000 nM	–	100 to 1000 nM	< 100 nM	CCN(c1nc(OC[C@]23CCCN2C[C@H](F)C3)nc2c(F)c(-c3ccc(F)c4sc(N)c(C#N)c34)c(C(F)(F)F)cc12)[C@H]1CCN(C(=O)OC)C1 (atropisomer, axis not shown) [Compound 955]

Reference: patent US20260042764A1, “COMPOSITIONS AND METHODS FOR INHIBITION OF KRAS” (TheRas, Inc., priority 2022, published 2026)
